Data taken from patent US8278469B2, “17-hydroxy-17-pentafluoroethyl-estra-4,9(10)-dien-11-aryl derivatives, method of production thereof and use thereof for the treatment of diseases” (Bayer Pharma Aktiengesellschaft, priority 2009, dated 2012).

Tests used:
[1] = biological target: T1, human progesterone receptor B (PR-B) (Homo sapiens, UniProt P06401); assay: Progesterone receptor-antagonistic action in stable transfectants of SK-N-MC cells with human PR-B and MTV-LUC reporter; format: cell-based; conditions: SK-N-MC, 24 h, read-out: Progesterone receptor B (PR-B) Efficacy
T1 construct: expressed in transfected cells; host or cells: SK-N-MC human neuroblastoma cells, stably transfected with pRChPR-B-neo and pMMTV-LUC
T1 sequence (P06401 1-933): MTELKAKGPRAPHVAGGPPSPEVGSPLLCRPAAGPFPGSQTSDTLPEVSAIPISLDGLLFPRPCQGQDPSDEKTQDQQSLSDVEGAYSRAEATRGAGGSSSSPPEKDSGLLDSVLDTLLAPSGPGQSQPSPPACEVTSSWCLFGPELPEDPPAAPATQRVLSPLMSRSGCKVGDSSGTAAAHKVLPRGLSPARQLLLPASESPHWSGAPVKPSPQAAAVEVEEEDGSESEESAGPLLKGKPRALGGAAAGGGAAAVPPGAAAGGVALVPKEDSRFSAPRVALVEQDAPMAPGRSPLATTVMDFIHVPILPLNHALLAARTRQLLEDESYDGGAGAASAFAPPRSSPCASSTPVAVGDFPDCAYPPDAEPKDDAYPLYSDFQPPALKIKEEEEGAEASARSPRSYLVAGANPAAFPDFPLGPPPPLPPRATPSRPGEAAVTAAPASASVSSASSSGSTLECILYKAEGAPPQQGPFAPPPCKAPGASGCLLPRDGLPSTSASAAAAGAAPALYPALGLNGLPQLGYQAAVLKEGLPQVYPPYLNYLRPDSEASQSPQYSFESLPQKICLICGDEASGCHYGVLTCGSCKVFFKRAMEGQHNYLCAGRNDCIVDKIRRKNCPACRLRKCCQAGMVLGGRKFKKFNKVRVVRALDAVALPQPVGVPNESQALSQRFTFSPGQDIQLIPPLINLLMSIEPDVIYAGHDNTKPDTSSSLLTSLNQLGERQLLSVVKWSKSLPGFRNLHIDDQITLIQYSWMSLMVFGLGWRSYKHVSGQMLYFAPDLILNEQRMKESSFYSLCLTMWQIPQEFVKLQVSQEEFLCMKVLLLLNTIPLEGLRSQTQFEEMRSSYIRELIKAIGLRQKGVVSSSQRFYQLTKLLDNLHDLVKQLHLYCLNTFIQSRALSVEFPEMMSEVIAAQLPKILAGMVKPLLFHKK
Protocol: Progesterone Receptor-Antagonistic Action in Stable Transfectants of Human Neuroblastoma Cells (SK-N-MC Cells) with the Human Progesterone A or Progesterone B Receptor and an MTV-LUC Reporter Construct
SK-N-MC cells (human neuroblastoma cells), which have been stably transfected with plasmids, which express the human progesterone receptor B (pRChPR-B-neo) or the human progesterone receptor A (pRChPR-A-neo) and a reporter construct (pMMTV-LUC), were incubated for 24 hours either in the absence (negative control) or in the presence of increasing amounts of the respective test compound (0.01 nmol/l, 0.1 nmol/l, 1 nmol/l, 10 nmol/l, 100 nmol/l and 1 μmol/l), in order to determine the agonistic efficacy. As positive control of reporter gene induction, the cells were treated with the synthetic gestagen promegestone (0.01 nmol/l, 0.1 nmol/l, 1 nmol/l, 10 nmol/l, 100 nmol/l and 1 μmol/l). For determination of the antagonistic activity, the cells were treated with 0.1 nmol/l promegestone and additionally with increasing amounts of the respective test compound (0.01 nmol/l, 0.1 nmol/l, 1 nmol/l, 10 nmol/l, 100 nmol/l and 1 μmol/l). The activity of the LUC reporter gene (LUC=luciferase) was determined in the cell lysates and was measured as RLU (relative light units). All measured values are given as percentage efficacy and as EC50 or IC50 concentrations.
11β-(4-Acetylphenyl)-20,20,21,21,21-pentafluoro-17-hydroxy-19-nor-17α-pregna-4,9-dien-3-one and 20,20,21,21,21-pentafluoro-17-hydroxy-11β-[4-(hydroxyacetyl)phenyl]-19-nor-17α-pregna-4,9-dien-3-one, very potent and therefore preferred examples from WO98/34947 and WO2008/058767, were tested as comparative compounds along with the test compound.

[2] = Permeation in Caco-2 cells; format: in vitro ADME; conditions: human, Caco-2, 2 μM, 37° C., apical to basolateral
Protocol: Permeation of (11β,17β)-17-hydroxy-11-[4-(methylsulphonyl)phenyl]-17-(pentafluoroethyl)estra-4,9-dien-3-one in Caco-2 Cells
For the permeation studies, Caco-2 cells with a cell count of 300000 cells/ml were cultivated on Transwell Clear filter inserts (polyester; pore size 0.4 μm) in 12-well cell culture plates for at least 14 days in cell culture medium (1.5 ml) at 37° C., 5% CO2 and 95% air humidity. Before the test, to verify the “compactness” of the cell monolayer, the transepithelial resistance (TEER value) was determined, which must be greater than 300 Ωcm^2. Then the cell culture medium was replaced with hot transport buffer (0.5 ml apical, 1.5 ml basolateral) and the cells were equilibrated in it for 5 min. The permeability test was performed in duplicate at a substance concentration of 2 μM. At the start of the experiment, 100 μl (Ap0 min) was taken from the apical compartment and 100 μl of ice-cold stopping solution was added to it immediately. […] After further dilution of the samples with 4 times the volume of stopping solution/transport buffer (1+1) they were sedimented overnight at −20° C. and the supernatant was analysed by LCMS/MS. The Papp value of the substances was calculated from the following formula. […]

cardiovascular system = assay: Action on the cardiovascular system (incl. ECG) of anaesthetized beagle dogs; format: in vivo; conditions: anaesthetized female beagle dogs, i.v. 0.1; 0.33 and 1 mg/kg, in comparison with the control
Protocol: Investigation of the Action on the Cardiovascular System (Incl. ECG) of Anaesthetized Beagle Dogs
(11β,17β)-17-Hydroxy-11-[4-(methylsulphonyl)phenyl]-17-(pentafluoroethyl)estra-4,9-dien-3-one, dissolved in a mixture of PEG 400 and HP-β-CD (60% PEG 400, 40% HP-β-CD 30%), was administered intravenously to anaesthetized female beagle dogs. The body weight of the dogs was >9 kg. 3 dogs were treated per group and additionally 3 dogs in the control group. 0.1; 0.33 and 1 mg/kg of the substance was administered in 3 consecutive infusions, in each case over a period of 30 minutes. The maximum amount of vehicle was 0.4 ml per kg for 30 minutes. Blood samples were taken from the animals at various time points. The highest plasma level (average for all 3 animals) was 1650 ng/ml at the end of the third infusion.

rodents and non-rodents = conditions: in vivo

With `C[C@]12C[C@H](c3ccc(S(C)(=O)=O)cc3)C3=C4CCC(=O)C=C4CC[C@H]3[C@@H]1CC[C@@]2(O)C(F)(F)C(F)(F)F` [Example 4, (11β,17β)-17-Hydroxy-11-[4-(methylsulphonyl)phenyl]-17-(pentafluoroethyl)estra-4,9-dien-3-one] the Emax [1] was 100%, the Papp A→B at 90 min, 2 μM [2] was 10.4 ×10⁻⁶ cm/s and the “Effects on the cardiovascular system (pulmonary artery pressure, systemic arterial blood pressure, heart rate, ECG)” value (cardiovascular system) was “no biologically relevant effects on the cardiovascular system”. For the same molecule, the “Safety profile (in acute and chronic tests)” value (rodents and non-rodents) was “especially favourable safety profile”.
